From patent EP0381422B1, “Tetrahydrobenzimidazole derivatives” (YAMANOUCHI PHARMACEUTICAL CO. LTD., priority 1989, dated 1990) come the findings set out here.

Each structure is given as a SMILES string.

The test system of this assay is 5-HT3 receptor. The experiment in a line: Antagonism against 5-HT3-receptor: inhibition of serotonin-induced Bezold-Jarish (BJ) reflex in anesthetized rats. In kind it is in vivo, Wistar male rats. Here is the method: Antagonism Against 5-HT3-Receptor
Nine-week-old Wistar male rats were anesthetized by intravenous injection of 1 g/kg of urethane, and blood pressure and heart rate were measured under artificial respiration. Transient reduction in heart rate and blood pressure induced by intravenous administration of serotonin or 2-methylserotonin which is a selective agonist of 5-HT3 was taken as an index of the reaction via 5-HT3 receptor [Bezold-Jarish reflex; Paintal, A.S., Pysiolo. Rev., Vol. 53, p.
Inhibitory activity of compounds of the present invention on serotonin-induced Bezold-Jarish (BJ) reflex in rats is shown in Table 1.

Regarding `O=C(C1CCc2nc[nH]c2C1)N1CCc2ccccc21.O=C(O)/C=C/C(=O)O` (centres unmarked) [Example 2, 5-[(2,3-Dihydroindol-1-yl)carbonyl]-4,5,6,7-tetrahydrobenzimidazole fumarate], the “BJ Reflex Inhibitory Activity (ED50; µg/kg, i.v.)” value was determined as 0.29 µg/kg.
The figure for `O=C(C1CCc2nc[nH]c2C1)n1c(=O)[nH]c2ccccc21` (centres unmarked) [Example 9, 1-[(4,5,6,7-tetrahydrobenzimidazol-5-yl)carbonyl]-2,3-dihydrobenzimidazol-2-one] is 0.80 µg/kg.
